Paper PMC12064818, “A general assay platform to study protein pharmacology using ligand-dependent structural dynamics” (Nature Communications, 2025)
“And” between values parts separate entries of the source, which are not always exact repeats. Equal entries are not always repeated.

Biological target: FLuc-C-NLuc (firefly luciferase) (Photinus pyralis, UniProt P08659, form not given/L550V)
Experiment: Firefly luciferase (FLuc) enzymatic luminescence assay, FLuc-C-NLuc
Assay type: biochemical
Set-up: key to Enz: % normalized; no enzyme control = 100% inhibition, DMSO = 0
Details: for Enz: Log[Compound]
Method: The enzyme activity of FLuc-N-HiBiT, FLuc-C-HiBiT, and FLuc-C-NLuc was measured similar to P. pyralis firefly luciferase (FLuc) as previously described. […] Compounds and controls were added to each plate as described in Supplementary Data 8 with a Hornet pintool system (Wako Automation). Compounds were incubated with respective enzymes for 30–60 min at room temperature protected from light and covered by solid metal lid to prevent evaporation. […] Luciferin was incubated with FLuc enzyme for 5 min before FLuc activity was then measured on a ViewLux CCD imager (PerkinElmer), with exposure times up to ten seconds with medium to high gain settings. Data were normalized to average no enzyme control as 100% enzyme inhibition and average DMSO neutral control. See Supplementary Table 4 for additional details.
Supplementary Table 4. Protocol for Firefly luciferase (FLuc) and NanoLuc (NLuc) enzymatic
Supplementary Table 4: Protocol for Firefly luciferase (FLuc) and NanoLuc (NLuc) enzym atic lum inescence assay
Firefly luciferase (FLuc) enzym atic lum inescence assay
Sequence Param eter Value Description
No enzym e control (colum n 1) and enzym e solution (1- 10 nM FLuc enzym e) in FLuc assay
1 Reagent 4 µLbuffer; white/solid bottom , m edium bind, high base plates (Greiner), dispensed with BioRaptr
com pounds transferred to respective colum ns with Pintool
2b Test Com pounds 23 nLconcentration range) in colum ns 5- 48; com pounds transferred to respective wells with
3 Incubation 30 m in Incubate enzym e + com pounds at am bient tem p for 30 m in, protected from light
4 Reagent 3 µLAdd 3 µL of D-luciferin substrate solution to each well (final concentration 10 µM); dispensed
5 Detector ViewLux Read plate lum inescence (Exposure = 1- 10 sec; Gain = Medium -high; Speed = Slow;
Dispensing solution was diluted in 1X PBS, pH 7.4. […]

[1] = FLuc-C-NLuc (1 nM) + 10 mM ATP, 32.8 µM ligand

Sequence of FLuc-C-NLuc (firefly luciferase) (P08659 2-550 L550V, form open): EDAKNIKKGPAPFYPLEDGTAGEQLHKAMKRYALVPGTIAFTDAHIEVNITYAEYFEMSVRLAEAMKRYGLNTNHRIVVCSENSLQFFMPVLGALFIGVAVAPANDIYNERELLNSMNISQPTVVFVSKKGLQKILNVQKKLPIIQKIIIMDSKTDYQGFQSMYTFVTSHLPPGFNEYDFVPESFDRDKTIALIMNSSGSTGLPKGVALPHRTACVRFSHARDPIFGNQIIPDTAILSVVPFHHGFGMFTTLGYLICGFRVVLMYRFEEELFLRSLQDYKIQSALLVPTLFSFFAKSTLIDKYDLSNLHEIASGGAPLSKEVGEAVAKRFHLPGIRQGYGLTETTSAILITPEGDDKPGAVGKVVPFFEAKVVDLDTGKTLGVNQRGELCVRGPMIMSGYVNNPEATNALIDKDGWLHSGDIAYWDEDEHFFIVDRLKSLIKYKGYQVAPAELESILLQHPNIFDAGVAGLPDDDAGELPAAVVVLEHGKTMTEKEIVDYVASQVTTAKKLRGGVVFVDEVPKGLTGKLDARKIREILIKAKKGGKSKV

`CC(CNC(=O)C1CCN(C(=O)c2ncn3c2COC(c2ccccc2)C3)CC1)c1ccccc1` (stereo not drawn) [compound 00449795] was tested, and the Enz (M -4.48) was -89.10, the Enz (M -4.96) was -73.93 and the Enz (M -5.44) was -56.58. The Enz (M -5.91) was -29.78, the Enz (M -6.39) was -11.92 and the Enz (M -6.87) was -0.00581. For the same molecule, the Enz (M -7.35) was 4.23, the Enz (M -7.82) was 7.74 and the Enz (M -8.30) was 6.20. The Enz (M -8.78) was 3.71 and the Enz (M -9.25) was 4.09.

For `O=C(O)c1cccc(-c2noc(-c3ccccc3F)n2)c1` [PTC124, reference compound], the “Functional Enzymatic Assay” value (1 nM FLuc-C-NLuc, Log [PTC124], M -6.87, replicates) was 5.5 RLU and 5.8 RLU and 4.9 RLU and 5.4 RLU, the “pIC50, FLuc-C-NLuc (1 nM)” value (10 μM ATP) was 9.85 ± 0.03 and the “Standard assay statistics Ave RLU” value [1] was 18.2 RLU. The “Standard assay statistics S:B” value [1] was 48.3, the “Standard assay statistics S:N” value [1] was 14.7 and the “Standard assay statistics Z’” value [1] was 0.775. The “1 nM FLuc-C-NLuc Enz, Mean” value (Log [PTC124], M -4.48) was 0.85 RLU, the “1 nM FLuc-C-NLuc Enz, Mean” value (Log [PTC124], M -4.96) was 0.8 RLU and the “1 nM FLuc-C-NLuc Enz, Mean” value (Log [PTC124], M -5.44) was 1.3 RLU. The “1 nM FLuc-C-NLuc Enz, Mean” value (Log [PTC124], M -5.91) was 1.6 RLU, the “1 nM FLuc-C-NLuc Enz, Mean” value (Log [PTC124], M -6.39) was 2.8 RLU and the “1 nM FLuc-C-NLuc Enz, Mean” value (Log [PTC124], M -6.87) was 5.9 RLU. For the same molecule, the “1 nM FLuc-C-NLuc Enz, Mean” value (Log [PTC124], M -7.35) was 11.8 RLU, the “1 nM FLuc-C-NLuc Enz, Mean” value (Log [PTC124], M -7.82) was 27.4 RLU and the “1 nM FLuc-C-NLuc Enz, Mean” value (Log [PTC124], M -8.30) was 69.9 RLU. For the same molecule, the “1 nM FLuc-C-NLuc Enz, Mean” value (Log [PTC124], M -8.78) was 146.5 RLU, the “1 nM FLuc-C-NLuc Enz, Mean” value (Log [PTC124], M -9.25) was 188.2 RLU and the “1 nM FLuc-C-NLuc Enz, Mean” value (Log [PTC124], M -9.73) was 384.3 RLU. The “1 nM FLuc-C-NLuc Enz, Mean” value (Log [PTC124], M -10.21) was 641.6 RLU, the “1 nM FLuc-C-NLuc Enz, Mean” value (Log [PTC124], M -10.69) was 817.0 RLU and the “1 nM FLuc-C-NLuc Enz, Mean” value (Log [PTC124], M -11.16) was 872.5 RLU. For the same molecule, the “1 nM FLuc-C-NLuc Enz, Mean” value (Log [PTC124], M -11.64) was 882.4 RLU.
